Series [1] in a line: Retardation factor in 2-butanol-0.1 N acetic acid at 1:1 ratio by TLC. The format is physicochemical.
The nature of series [2]: Inhibition of LRF-induced luteinizing hormone secretion in rat anterior pituitary cells relative to [des-His2,D-Ala6]-LRF. The series is classed as functional, Pituitary gland cell.
Series [3] in a line: Retardation factor in 2-butanol-water at 1:1 ratio by TLC. The series is classed as physicochemical. The conditions noted are these: buffer.
The nature of series [4]: Retardation factor in 1-butanol-acetic acid-water at 4:1:5 ratio by TLC. The series is classed as physicochemical. The following applies: buffer.
Series [5] is described as follows: Retardation factor in 1-butanol-2-propanol-1 N ammonium hydroxide-ethyl acetate at 1:1:2.5:1 ratio by TLC. The format is physicochemical.
Series [6] is described as follows: Retardation factor in 2-butanol-0.1 N ammonium hydroxide at 1:1 ratio by TLC. The format is physicochemical.
Series [7] is described as follows: Retardation factor in ethyl acetate-pyridine-acetic acid-water at 5:5:1:3 ratio by TLC. The format is physicochemical. The following applies: buffer.
Series [8] is described as follows: Retardation factor in 1-butanol-pyridine-0.1% acetic acid at 5:3:11 ratio by TLC. The series is classed as physicochemical.
Series [9] can be described thus: Retardation factor in 1-butanol-ethyl acetate-acetic acid-water at 1:1:1:1 ratio by TLC. The series is classed as physicochemical. The conditions noted are these: buffer.

Data on 3 compounds can be found in ChEMBL document CHEMBL3272080, “Analogues of luteinizing hormone releasing factor modified at positions 2, 6, and 10” (J Med Chem, 1976).

*1 amine or outer side, *2 acyl side, *3 side chain or, on linkers, in order; H or OH if unused. Where a SMILES comes first, the peptide text is derived from it. [ ]: non-standard residue; d: D form. X1 = CCCCCCCCCCCCNCCC[C@@H](N[*:1])C(=O)[*:2]; pGlu = O=C1CC[C@@H](C(=O)O)N1

Turning to `CCCCCCCCCCCCNCCCC[C@@H](NC(=O)[C@H](Cc1ccc(O)cc1)NC(=O)[C@H](CO)NC(=O)[C@H](Cc1c[nH]c2ccccc12)NC(=O)[C@@H]1CCC(=O)N1)C(=O)N[C@@H](CC(C)C)C(=O)N[C@@H](CCCNC(=N)N)C(=O)N1CCC[C@H]1C(=O)NCC`, the Rf was found to be 0.52 in series [1]; 0.46 in [3]; 0.63 in [4]; 0.47 in [5]; 0.45 in series [6]; 0.53 in [7]. In addition, the Rf is listed as 0.73 in [8] and 0.83 in series [9]. Further, in series [2], the “fold change (FC)” value turned out to be 276.

With `CCCCCCCCCCCCNCCC[C@@H](NC(=O)[C@H](Cc1ccc(O)cc1)NC(=O)[C@H](CO)NC(=O)[C@H](Cc1c[nH]c2ccccc12)NC(=O)[C@@H]1CCC(=O)N1)C(=O)N[C@@H](CC(C)C)C(=O)N[C@@H](CCCNC(=N)N)C(=O)N1CCC[C@H]1C(=O)NCC` ([pGlu]WSY[X1]LRP-NHEt), the Rf turned out to be 0.51 in series [1]; 0.47 in series [3]; 0.64 in series [4]; 0.49 in series [5]; 0.46 in [6]; 0.55 in series [7]. Moreover, the Rf in [8] was 0.71; in [9], 0.84. The “fold change (FC)” value in [2] was 153.

In the case of `CCCCCCCCCCCCNCCC[C@@H](NC(=O)[C@H](Cc1ccc(O)cc1)NC(=O)[C@H](CO)NC(=O)[C@H](Cc1c[nH]c2ccccc12)NC(=O)[C@@H]1CCC(=O)N1)C(=O)N[C@@H](CC(C)C)C(=O)N[C@@H](CCCNC(=N)N)C(=O)N1CCC[C@H]1C(=O)NCC(N)=O` ([pGlu]WSY[X1]LRPG-NH2), the Rf in series [1] amounted to 0.47; in [3] it was 0.45; in series [4], 0.53; in series [5] it was 0.44; in series [6], 0.43; in [7] it was 0.48. Also, the results for the Rf in series [8] and in series [9] were 0.67 and 0.78, respectively. Moreover, the “fold change (FC)” value in [2] is recorded as 278.
